Patent US6727232B2, “Nucleoside peptide antibiotics of AA-896” (Wyeth Holdings Corporation, priority 2001, dated 2004)
≈ marks a conversion by molar mass, not a printed value. Like-named read-outs stand apart in the source and are kept apart here.

Assays:
Assay in all cases: Broth dilution MIC
Type in all cases: cell-based
E. faecalis GC 2242 = details: Enterococcus faecalis, GC2242; E. faecalis GC 2242; Mueller-Hinton broth, 18 hours at 35° C.; read-out: Antimicrobial Activity (MIC)
Description: (§1) The in vitro antibacterial activity of Example 1 through Example 20 is determined against a spectrum of Gram-positive and Gram-negative bacteria by a standard broth dilution method. Serial dilution of the compounds are made in Mueller-Hinton broth and inoculated with a bacterial suspension. The lowest concentration of compound that inhibited the growth of a bacterial strain after 18 hours of incubation at 35° C. is reported as the minimal inhibitory concentration (MIC) for that strain.

P. rettgeri GC 4530 = details: Providencia rettgeri, GC4530; P. rettgeri GC 4530; Mueller-Hinton broth, 18 hours at 35° C.; read-out: Antimicrobial Activity (MIC)
Description: as §1

CNS GC 4547 = details: CNS GC 4547; Mueller-Hinton broth, 18 hours at 35° C.; read-out: Antimicrobial Activity (MIC)
Description: as §1

S. aureus GC 4536 = details: Staphylococcus aureus, GC4536; S. aureus GC 4536; Mueller-Hinton broth, 18 hours at 35° C.; read-out: Antimicrobial Activity (MIC)
Description: as §1

E. faecalis GC 4555 = details: Enterococcus faecalis, GC4555; E. faecalis GC 4555; Mueller-Hinton broth, 18 hours at 35° C.; read-out: Antimicrobial Activity (MIC)
Description: as §1

E. coli GC 4560 = details: Escherichia coli, read-out: Antimicrobial Activity (MIC)
Description: as §1

E. cloacae GC 3783 = details: Enterobacter cloacae, GC3783; E. cloacae GC 3783; Mueller-Hinton broth, 18 hours at 35° C.; read-out: Antimicrobial Activity (MIC)
Description: as §1

E. coli GC 3226 = details: Escherichia coli, GC3226; E. coli GC 3226; Mueller-Hinton broth, 18 hours at 35° C.; read-out: Antimicrobial Activity (MIC)
Description: as §1

E. coli GC 4559 = details: Escherichia coli, GC4559; E. coli GC 4559; Mueller-Hinton broth, 18 hours at 35° C.; read-out: Antimicrobial Activity (MIC)
Description: as §1

E. coli GC 2203 = details: Escherichia coli, GC2203; E. coli GC 2203; Mueller-Hinton broth, 18 hours at 35° C.; read-out: Antimicrobial Activity (MIC)
Description: as §1

P. aeruginosa GC 4532 = details: Pseudomonas aeruginosa, GC4532; P. aeruginosa GC 4532; Mueller-Hinton broth, 18 hours at 35° C.; read-out: Antimicrobial Activity (MIC)
Description: as §1

P. aeruginosa GC 2214 = details: Pseudomonas aeruginosa, GC2214; P. aeruginosa GC 2214; Mueller-Hinton broth, 18 hours at 35° C.; read-out: Antimicrobial Activity (MIC)
Description: as §1

S. marcescens GC 4077 = details: Serratia marcescens, GC4077; S. marcescens GC 4077; Mueller-Hinton broth, 18 hours at 35° C.; read-out: Antimicrobial Activity (MIC)
Description: as §1

K. pneumoniae GC 4534 = details: Klebsiella pneumoniae, GC4534; K. pneumoniae GC 4534; Mueller-Hinton broth, 18 hours at 35° C.; read-out: Antimicrobial Activity (MIC)
Description: as §1

E. faecalis GC 842 = details: Enterococcus faecalis, GC842; E. faecalis GC 842; Mueller-Hinton broth, 18 hours at 35° C.; read-out: Antimicrobial Activity (MIC)
Description: as §1

S. aureus GC 2216 = details: Staphylococcus aureus, GC2216; S. aureus GC 2216; Mueller-Hinton broth, 18 hours at 35° C.; read-out: Antimicrobial Activity (MIC)
Description: as §1

M. morganii GC 4531 = details: Morganella morganii, GC4531; M. morganii GC 4531; Mueller-Hinton broth, 18 hours at 35° C.; read-out: Antimicrobial Activity (MIC)
Description: as §1

S. aureus GC 1131 = details: Staphylococcus aureus, GC1131; S. aureus GC 1131; Mueller-Hinton broth, 18 hours at 35° C.; read-out: Antimicrobial Activity (MIC)
Description: as §1

CNS GC 4538 = details: CNS GC 4538; Mueller-Hinton broth, 18 hours at 35° C.; read-out: Antimicrobial Activity (MIC)
Description: as §1

CNS GC 4537 = details: CNS GC 4537; Mueller-Hinton broth, 18 hours at 35° C.; read-out: Antimicrobial Activity (MIC)
Description: as §1

[1] = GC4560, E. coli GC 4560, Mueller-Hinton broth, 18 hours at 35° C.

Row | Structure (SMILES) | MIC (E. faecalis GC 2242) [µg/mL] | MIC (P. rettgeri GC 4530) [µg/mL] | MIC (CNS GC 4547) [µg/mL] | MIC (S. aureus GC 4536) [µg/mL] | MIC (E. faecalis GC 4555) [µg/mL] | MIC (E. coli GC 4560; GC4560, 18 h) [µg/mL] | MIC (E. cloacae GC 3783) [µg/mL] | MIC (E. coli GC 3226) [µg/mL] | MIC (E. coli GC 4559) [µg/mL] | MIC (E. coli GC 2203) [µg/mL] | MIC (P. aeruginosa GC 4532) [µg/mL] | MIC (P. aeruginosa GC 2214) [µg/mL] | MIC (S. marcescens GC 4077) [µg/mL] | MIC (K. pneumoniae GC 4534) [µg/mL] | MIC (E. faecalis GC 842) [µg/mL] | MIC (S. aureus GC 2216) [µg/mL] | MIC (M. morganii GC 4531) [µg/mL] | MIC (S. aureus GC 1131) [µg/mL] | MIC (CNS GC 4538) [µg/mL] | MIC (CNS GC 4537) [µg/mL] | other results
1 | CCCCCN(CCCNC(=O)C(NC(=O)C(NC(=O)NC(C(=O)O)C(C)C)C1CCNC(=N)N1)C(O)C(C)C)C(C(=O)O)[C@@H](OC1O[C@H](CN)[C@H](O)[C@H]1OC)[C@H]1O[C@@H](n2ccc(=O)[nH]c2=O)[C@H](O)[C@@H]1O (stereo partly drawn) [Example 9, 16-((R)-{[(3R,4S,5R)-5-(Aminomethyl)-4-hydroxy-3-methoxytetrahydro-2-furanyl]oxy}{(2S,3S,4R,5R)-5-[2,4-dioxo-3,4-di hydro-1 (2H)-pyrimidinyl]-3,4-dihydroxytetrahydro-2-furanyl}methyl)-9-(1-hydroxy-2-methylpropyl)-6-(2-iminohexahydro-4-pyrimidinyl)-2-isopropyl-4,7,10-trioxo-15-pentyl-3,5,8,11,15-pentaazaheptadecane-1,17-dioic Acid] | > 32 | > 32 | > 32 | > 32 | > 32 | 32 (≈ 31.5 µM) | > 32 | > 32 | > 32 | > 32 | > 32 | > 32 | > 32 | > 32 | > 32 | > 32 | > 32 | > 32 | > 32 | > 32 | –
2 | CO[C@H]1C(O[C@H](C(C(=O)O)N(CCCCCCCCCCCC[N+]2(C)CCOCC2)CCCNC(=O)C(NC(=O)C(NC(=O)NC(C(=O)O)C(C)C)C2CCNC(=N)N2)C(O)C(C)C)[C@H]2O[C@@H](n3ccc(=O)[nH]c3=O)[C@H](O)[C@@H]2O)O[C@H](CN)[C@@H]1O (stereo partly drawn) [Example 10, 4-[13-((2R)-2-{[(3R,4S,5R)-5-(Aminomethyl)-4-hydroxy-3-methoxytetrahydro-2-furanyl]oxy}-1-carboxy-2-{(2S,3S,4R,5R)-5-[2,4-dioxo-3,4-dihydro-1 (2H)-pyrimidinyl]-3,4-dihydroxytetrahydro-2-furanyl}ethyl)-26-carboxy-19-(1-hydroxy-2-methylpropyl)-22-(2-iminohexahydro-4-pyrimidinyl) -27-methyl-18,21,24-trioxo-13,17,20,23,25-pentaazaoctacos-1-yl]-4-methylmorpholin-4-ium] | > 32 | > 32 | > 32 | > 32 | > 32 | 16 | > 32 | > 32 | > 32 | > 32 | > 32 | > 32 | > 32 | > 32 | > 32 | > 32 | > 32 | > 32 | > 32 | > 32 | –
3 | CCCCCCCCNC(=O)NC[C@H]1OC(O[C@H](C2C(=O)N(CCCCCCCC)C(=O)N2CCCNC(=O)C(NC(=O)C(NC(=O)NC(C(=O)O)C(C)C)C2CCNC(=N)N2)C(O)C(C)C)[C@H]2O[C@@H](n3ccc(=O)[nH]c3=O)[C@H](O)[C@@H]2O)[C@H](OC)[C@H]1O (stereo partly drawn) [Example 11, 14-[5-((R)-{(2S,3S,4R,5R)-5-[2,4-Dioxo-3,4-dihydro-1 (2H)-pyrimidinyl]-3,4-dihydroxytetrahydro-2-furanyl}{[(3R,4S,5R)-4-hydroxy-3-methoxy-5-({[(octylamino)carbonyl]amino}methyl)tetrahydro-2-furanyl]oxy}methyl)-3-octyl-2,4-dioxo-1-imidazolidinyl]-9-(1-hydroxy-2-methylpropyl)-6-(2-iminohexahydro-4-pyrimidinyl)-2-isopropyl-4,7,10-trioxo-3,5,8,11-tetraazatetradecan-1-oic Acid] | > 32 | > 32 | > 32 | > 32 | > 32 | – | > 32 | > 32 | > 32 | > 32 | > 32 | > 32 | > 32 | > 32 | > 32 | > 32 | > 32 | > 32 | > 32 | > 32 | MIC (E. coli GC 4560; [1]): > 32 µg/mL
4 | COC1C(O[C@H](C2C(=O)N(c3ccc(F)cc3)C(=O)N2CCCNC(=O)C(NC(=O)C(NC(=O)NC(C(=O)O)C(C)C)C2CCNC(=N)N2)C(O)C(C)C)[C@H]2O[C@@H](n3ccc(=O)[nH]c3=O)C(O)C2O)O[C@H](CNC(=O)Nc2ccc(F)cc2)C1O (stereo partly drawn) [Example 12, 14-[5-((R)-{(2S,5R)-5-[2,4-Dioxo-3,4-dihydro-1 (2H)-pyrimidinyl]-3,4-dihydroxytetrahydro-2-furanyl}{[(5R)-4-hydroxy-3-methoxy-5-({[(4-fluoroanilino)carbonyl]amino}methyl)tetrahydro-2-furanyl]oxy}methyl)-3-(4-fluorophenyl)-2,4-dioxo-1-imidazolidinyl]-9-(1-hydroxy-2-methylpropyl)-6-(2-iminohexahydro-4-pyrimidinyl)-2-isopropyl-4,7,10-trioxo-3,5,8,11-tetraazatetradecan-1-oic Acid] | > 32 | > 32 | > 32 | > 32 | > 32 | – | > 32 | > 32 | > 32 | > 32 | > 32 | > 32 | > 32 | > 32 | > 32 | > 32 | > 32 | > 32 | > 32 | > 32 | MIC (E. coli GC 4560; [1]): > 32 µg/mL
